Measured values from patent US10689381B2 (priority 2017, dated 2020).

Experiments:
L1210 = assay: cells; format: cell-based, mouse; conditions: Table 2
Experimental: (§1) A population of cells (>1×10^6 cells/mL as determined with a hemocytometer) was diluted with Dulbecco's Modified Eagle Medium (DMEM, Gibco) containing 10% fetal bovine serum (FBS, Gibco) to give a final concentration of 30,000 cells/mL. To each well of a 96-well plate (Corning® Costar®) was added 100 μL of the cell media solution with a multichannel pipet.
(§2) The test compounds were then added to the plate as follows: test compounds were diluted in DMSO to a concentration of 1 mM. 10-Fold serial dilutions in DMSO were next performed on a separate 96-well plate. Fresh culture media (100 μL) was added to each well of cells resulting in 200 μL of medium per well followed by 2 μL of each test agent. Compounds were tested in duplicate (n=2-8 times) at six concentrations between 0-1000 nM or 0-10000 nM. Following the addition of compound, cultures were incubated for an additional 72 hours.
(§3) The plates were incubated at 37° C. for 5 minutes (L1210) or 15 min (HCT116 and HCT116/VM46).

HCT116 = assay: cells; format: cell-based, human; conditions: for IC50: Table 2, read-out: IC50 HCT116; for potency relative to vinblastine (more potent): vinblastine-sensitive cell lines
Experimental: as §1, §2, §3

Compound | IC50 (L1210) [nM] | IC50 (HCT116) [nM] | potency relative to vinblastine (more potent) (HCT116) [fold]
CC[C@]1(NC(=O)c2ccc(OC(C)(C)C)cc2)C[C@H]2CN(CCc3c([nH]c4ccccc34)[C@@](C(=O)OC)(c3cc4c(cc3OC)N(C)[C@H]3[C@@](O)(C(=O)OC)[C@H](OC(C)=O)[C@]5(CC)C=CCN6CC[C@]43[C@@H]65)C2)C1 [Compound 75] | 0.6 | 0.6 | –
CCC1(NC(=O)c2ccc(Oc3ccccc3)cc2)CC2CN(CCc3c([nH]c4ccccc34)C(C(=O)OC)(c3cc4c(cc3OC)N(C)C3C(O)(C(=O)OC)C(OC(C)=O)C5(CC)C=CCN6CCC43C65)C2)C1 (stereo not shown) [Compound 76] | 5.2 | 6.5 | –
CC[C@]1(NC(=O)c2ccc(OCc3ccccc3)cc2)C[C@H]2CN(CCc3c([nH]c4ccccc34)[C@@](C(=O)OC)(c3cc4c(cc3OC)N(C)[C@H]3[C@@](O)(C(=O)OC)[C@H](OC(C)=O)[C@]5(CC)C=CCN6CC[C@]43[C@@H]65)C2)C1 [Compound 77] | 5.4 | 5.7 | –
CCC1(NC(=O)c2ccc(OC(F)(F)F)cc2)CC2CN(CCc3c([nH]c4ccccc34)C(C(=O)OC)(c3cc4c(cc3OC)N(C)C3C(O)(C(=O)OC)C(OC(C)=O)C5(CC)C=CCN6CCC43C65)C2)C1 (stereo not shown) [Compound 78] | 5.9 | 4.4 | –
CCC1(NC(=O)c2cccc(OC(F)(F)F)c2)CC2CN(CCc3c([nH]c4ccccc34)C(C(=O)OC)(c3cc4c(cc3OC)N(C)C3C(O)(C(=O)OC)C(OC(C)=O)C5(CC)C=CCN6CCC43C65)C2)C1 (stereo not shown) [Compound 79] | 4.8 | 5.9 | –
CC[C@]1(NC(=O)c2ccccc2OC(F)(F)F)C[C@H]2CN(CCc3c([nH]c4ccccc34)[C@@](C(=O)OC)(c3cc4c(cc3OC)N(C)[C@H]3[C@@](O)(C(=O)OC)[C@H](OC(C)=O)[C@]5(CC)C=CCN6CC[C@]43[C@@H]65)C2)C1 [Compound 80] | 450 | 480 | –
CCC1(NC(=O)c2ccc(OC(F)F)cc2)CC2CN(CCc3c([nH]c4ccccc34)C(C(=O)OC)(c3cc4c(cc3OC)N(C)C3C(O)(C(=O)OC)C(OC(C)=O)C5(CC)C=CCN6CCC43C65)C2)C1 (stereo not shown) [Compound 81] | 5.9 | 1.7 | –
CC[C@]1(NC(=O)c2ccc(OC(F)(F)F)c(OC)c2)C[C@H]2CN(CCc3c([nH]c4ccccc34)[C@@](C(=O)OC)(c3cc4c(cc3OC)N(C)[C@H]3[C@@](O)(C(=O)OC)[C@H](OC(C)=O)[C@]5(CC)C=CCN6CC[C@]43[C@@H]65)C2)C1 [Compound 83] | 1.3 | 1.7 | –
CCC1(NC(=O)c2ccc(SC)cc2)CC2CN(CCc3c([nH]c4ccccc34)C(C(=O)OC)(c3cc4c(cc3OC)N(C)C3C(O)(C(=O)OC)C(OC(C)=O)C5(CC)C=CCN6CCC43C65)C2)C1 (stereo not shown) [Compound 84] | 0.4 | 0.5 | –
CCC1(NC(=O)c2cccc(SC)c2)CC2CN(CCc3c([nH]c4ccccc34)C(C(=O)OC)(c3cc4c(cc3OC)N(C)C3C(O)(C(=O)OC)C(OC(C)=O)C5(CC)C=CCN6CCC43C65)C2)C1 (stereo not shown) [Compound 85] | 5.4 | 2.3 | –
CCSc1ccc(C(=O)NC2(CC)CC3CN(CCc4c([nH]c5ccccc45)C(C(=O)OC)(c4cc5c(cc4OC)N(C)C4C(O)(C(=O)OC)C(OC(C)=O)C6(CC)C=CCN7CCC54C76)C3)C2)cc1 (stereo not shown) [Compound 86] | 4.9 | 6.1 | –
CCC1(NC(=O)c2ccc(SC(C)C)cc2)CC2CN(CCc3c([nH]c4ccccc34)C(C(=O)OC)(c3cc4c(cc3OC)N(C)C3C(O)(C(=O)OC)C(OC(C)=O)C5(CC)C=CCN6CCC43C65)C2)C1 (stereo not shown) [Compound 87] | 4.3 | 4.6 | –
CCC1(NC(=O)c2ccc(S(=O)(=O)F)cc2)CC2CN(CCc3c([nH]c4ccccc34)C(C(=O)OC)(c3cc4c(cc3OC)N(C)C3C(O)(C(=O)OC)C(OC(C)=O)C5(CC)C=CCN6CCC43C65)C2)C1 (stereo not shown) [Compound 88] | 20 | 30 | –
CC[C@]1(NC(=O)c2cccc(S(=O)(=O)F)c2)C[C@H]2CN(CCc3c([nH]c4ccccc34)[C@@](C(=O)OC)(c3cc4c(cc3OC)N(C)[C@H]3[C@@](O)(C(=O)OC)[C@H](OC(C)=O)[C@]5(CC)C=CCN6CC[C@]43[C@@H]65)C2)C1 [Compound 89] | 40 | 30 | –
CC[C@]1(NC(=O)c2ccc(OC)c(F)c2)C[C@H]2CN(CCc3c([nH]c4ccccc34)[C@@](C(=O)OC)(c3cc4c(cc3OC)N(C)[C@H]3[C@@](O)(C(=O)OC)[C@H](OC(C)=O)[C@]5(CC)C=CCN6CC[C@]43[C@@H]65)C2)C1 [Compound 90] | 0.6 | 0.6 | –
CC[C@]1(NC(=O)c2ccc(OC)cc2F)C[C@H]2CN(CCc3c([nH]c4ccccc34)[C@@](C(=O)OC)(c3cc4c(cc3OC)N(C)[C@H]3[C@@](O)(C(=O)OC)[C@H](OC(C)=O)[C@]5(CC)C=CCN6CC[C@]43[C@@H]65)C2)C1 [Compound 91] | 6.2 | 6.4 | –

Compound | IC50 (L1210) [nM] | IC50 (HCT116) [nM] | potency relative to vinblastine (more potent) (HCT116) [fold]
CC[C@]1(NC(=O)c2ccc(OC)c(Cl)c2)C[C@H]2CN(CCc3c([nH]c4ccccc34)[C@@](C(=O)OC)(c3cc4c(cc3OC)N(C)[C@H]3[C@@](O)(C(=O)OC)[C@H](OC(C)=O)[C@]5(CC)C=CCN6CC[C@]43[C@@H]65)C2)C1 [Compound 92] | 3.7 | 5.1 | –
CCC1(NC(=O)c2ccc(OC)c(Br)c2)CC2CN(CCc3c([nH]c4ccccc34)C(C(=O)OC)(c3cc4c(cc3OC)N(C)C3C(O)(C(=O)OC)C(OC(C)=O)C5(CC)C=CCN6CCC43C65)C2)C1 (stereo not shown) [Compound 93] | 5.1 | 6.2 | –
CCOc1ccc(C(=O)N[C@@]2(CC)C[C@H]3CN(CCc4c([nH]c5ccccc45)[C@@](C(=O)OC)(c4cc5c(cc4OC)N(C)[C@H]4[C@@](O)(C(=O)OC)[C@H](OC(C)=O)[C@]6(CC)C=CCN7CC[C@]54[C@@H]76)C3)C2)cc1Cl [Compound 94] | 4.2 | 6.1 | –
CCOc1ccc(C(=O)N[C@@]2(CC)C[C@H]3CN(CCc4c([nH]c5ccccc45)[C@@](C(=O)OC)(c4cc5c(cc4OC)N(C)[C@H]4[C@@](O)(C(=O)OC)[C@H](OC(C)=O)[C@]6(CC)C=CCN7CC[C@]54[C@@H]76)C3)C2)cc1Br [Compound 95] | 3.9 | 6.2 | –
CC[C@]1(NC(=O)c2cc(Cl)c(OC)c(Cl)c2)C[C@H]2CN(CCc3c([nH]c4ccccc34)[C@@](C(=O)OC)(c3cc4c(cc3OC)N(C)[C@H]3[C@@](O)(C(=O)OC)[C@H](OC(C)=O)[C@]5(CC)C=CCN6CC[C@]43[C@@H]65)C2)C1 [Compound 96] | 3.1 | 4.2 | –
CC[C@]1(NC(=O)c2ccc(OC)c(C)c2)C[C@H]2CN(CCc3c([nH]c4ccccc34)[C@@](C(=O)OC)(c3cc4c(cc3OC)N(C)[C@H]3[C@@](O)(C(=O)OC)[C@H](OC(C)=O)[C@]5(CC)C=CCN6CC[C@]43[C@@H]65)C2)C1 [Compound 97] | 0.6 | 0.7 | 10
CCC1(NC(=O)c2ccc(C)c(OC)c2)CC2CN(CCc3c([nH]c4ccccc34)C(C(=O)OC)(c3cc4c(cc3OC)N(C)C3C(O)(C(=O)OC)C(OC(C)=O)C5(CC)C=CCN6CCC43C65)C2)C1 (stereo not shown) [Compound 98] | 4.2 | 3.3 | –
CCC1(NC(=O)c2cc(C)c(OC)c(C)c2)CC2CN(CCc3c([nH]c4ccccc34)C(C(=O)OC)(c3cc4c(cc3OC)N(C)C3C(O)(C(=O)OC)C(OC(C)=O)C5(CC)C=CCN6CCC43C65)C2)C1 (stereo not shown) [Compound 99] | 0.5 | 0.65 | 10
CC[C@]1(NC(=O)c2cc(C)c(OCc3ccccc3)c(C)c2)C[C@H]2CN(CCc3c([nH]c4ccccc34)[C@@](C(=O)OC)(c3cc4c(cc3OC)N(C)[C@H]3[C@@](O)(C(=O)OC)[C@H](OC(C)=O)[C@]5(CC)C=CCN6CC[C@]43[C@@H]65)C2)C1 [Compound 100] | 30 | 30 | –
CCC1(NC(=O)c2ccc(C)c(N)c2)CC2CN(CCc3c([nH]c4ccccc34)C(C(=O)OC)(c3cc4c(cc3OC)N(C)C3C(O)(C(=O)OC)C(OC(C)=O)C5(CC)C=CCN6CCC43C65)C2)C1 (stereo not shown) [Compound 101] | 0.6 | 0.7 | –
CCC1(NC(=O)c2ccc(C)c(NC(=O)OC(C)(C)C)c2)CC2CN(CCc3c([nH]c4ccccc34)C(C(=O)OC)(c3cc4c(cc3OC)N(C)C3C(O)(C(=O)OC)C(OC(C)=O)C5(CC)C=CCN6CCC43C65)C2)C1 (stereo not shown) [Compound 102] | 6 | 7.1 | –
CCC1(NC(=O)c2ccc(C)c(NC(C)=O)c2)CC2CN(CCc3c([nH]c4ccccc34)C(C(=O)OC)(c3cc4c(cc3OC)N(C)C3C(O)(C(=O)OC)C(OC(C)=O)C5(CC)C=CCN6CCC43C65)C2)C1 (stereo not shown) [Compound 103] | 5.4 | 4.3 | –
CC[C@]1(NC(=O)c2ccc(N)c(C)c2)C[C@H]2CN(CCc3c([nH]c4ccccc34)[C@@](C(=O)OC)(c3cc4c(cc3OC)N(C)[C@H]3[C@@](O)(C(=O)OC)[C@H](OC(C)=O)[C@]5(CC)C=CCN6CC[C@]43[C@@H]65)C2)C1 [Compound 104] | 0.6 | 0.6 | –
CC[C@]1(NC(=O)c2ccc(NC(=O)OC(C)(C)C)c(C)c2)C[C@H]2CN(CCc3c([nH]c4ccccc34)[C@@](C(=O)OC)(c3cc4c(cc3OC)N(C)[C@H]3[C@@](O)(C(=O)OC)[C@H](OC(C)=O)[C@]5(CC)C=CCN6CC[C@]43[C@@H]65)C2)C1 [Compound 105] | 5.6 | 5.8 | –
CC[C@]1(NC(=O)c2cccc(N3CCOCC3)c2)C[C@H]2CN(CCc3c([nH]c4ccccc34)[C@@](C(=O)OC)(c3cc4c(cc3OC)N(C)[C@H]3[C@@](O)(C(=O)OC)[C@H](OC(C)=O)[C@]5(CC)C=CCN6CC[C@]43[C@@H]65)C2)C1 [Compound 106] | 4.8 | 2.8 | –
